Results as given in patent US11077119B2, “Enhanced brain bioavailability of galantamine by selected formulations and transmucosal administration of lipophilic prodrugs” (Neurodyn Life Sciences Inc., priority 2012, dated 2021).
Values joined by “and” are separate entries in the source; they are usually repeats but may differ in a detail not shown here. Identical values can stand only once. Like-named read-outs stand apart in the source and are kept apart here.

Columns and labels:
[1] = in vivo
[2] = tested on: rats; settings: rat, in vivo
[3] = tested on: dogs; settings: dog, in vivo
[4] = 3 mg/kg
Method: The pharmacokinetics and brain-to-blood concentration ratios (BBRC) of several galantamine derivatives and their cleavage product galantamine were evaluated after intranasal administration in Swiss albino mice at a dose of 3 mg/kg. After extraction from brain and blood, the drug concentrations were determined by LC/MS/MS. For comparison, the BBRC for the parent drug galantamine was also determined.

[5] = tested on: scopolamine-induced amnesia in mice; experiment: Reversal of scopolamine-induced amnesia in T-maze; format: in vivo; settings: scopolamine i.p.; intranasal Memogain versus galantamine
Description: We therefore used pharmacodynamics studies to determine the effective concentrations of parent drug in suitable experimental conditions, such as the reversal of scopolamine-induced temporary amnesia in the T-maze cognitive paradigm studied in mice. These studies confirmed that several fold higher (up to 20 fold) BBRC of parent drug (and related effectiveness in cognitive enhancement) can be achieved by transmucosal delivery of pro-drug formulations via the nasal or buccal cavity.
Mice were treated with scopolamine to induce acute amnesia and were then tested for performance in a T-maze, in the absence or presence of […] galantamine or intranasal Memogain (FIG. 7). […] Mice were challenged with Scopolamine i.p. in a T-maze assay to induce disorientation/amnesia (set to 0% performance recovery). Co-application of galantamine (i.p.) or of Memogain® (i.n.) rescues orientation in the T-maze in a dose-dependent manner.

[6] = design: species or system Wistar rats; settings: rat, in vivo, 3 mg/kg
Method: The first-pass effect of Gln-1062 was evaluated after intravenous and intraportal dosing of 3 mg/kg in Wistar rats (FIG. 8).

[7] = tested on: rats; settings: rat, in vivo; remark: listed apart in the source
[8] = in vivo
Method: The study was performed in dogs. A single dose of 4 mg/kg intranasal Memogain was administered and the plasma levels of Memogain and liberated galantamine were determined as a function of time after administration.

[9] = physchem; format: physicochemical
Method: Free Base in Water: 26 μg/ml (66 μM)
Maleate in Water: 7.5 mg/ml (15 mM)
Maleate in 0.9% NaCl: 0.6 mg/ml (1.5 mM)
Free Base in Cyclodextrin-Vehicle^1): 8.9 mg/ml (23 mM)
Maleate in Cyclodextrin-Vehicle): 21 mg/ml (41 mM) ^1) 15% (109 mM) Hydroxypropyl-β-cyclodextrin, 96 mM NaCl

[10] = tested on: ferrets; experiment: Gastro-intestinal side effects in ferrets; settings: i.p.
Method: These studies were performed in ferrets that were dosed i.p. with either 20 mg/kg galantamine (maximal tolerated dose), or with 20, 40 and 80 mg/kg Memogain, respectively.

[11] = tested on: dogs; experiment: Safety after intravenous bolus; format: in vivo
Method: Example 13. Memogain is at Least 10 Times Safer than Galantamine
This study was performed in dogs, and both drugs were administered as intravenous bolus. The lower toxicity of Memogain is due to the much lower steady-state plasma levels of galantamine resulting from enzymatic cleavage of the pro-drug (FIG. 11).

[12] = molecular target: acetylcholinesterase (AChE) (Homo sapiens, UniProt P22303); experiment: esterase inhibition compared with galantamine; format: biochemical; settings: read-out: esterase inhibition, relative to that induced by the same concentration of galantamine
Chain of acetylcholinesterase (AChE) (P22303 32-614): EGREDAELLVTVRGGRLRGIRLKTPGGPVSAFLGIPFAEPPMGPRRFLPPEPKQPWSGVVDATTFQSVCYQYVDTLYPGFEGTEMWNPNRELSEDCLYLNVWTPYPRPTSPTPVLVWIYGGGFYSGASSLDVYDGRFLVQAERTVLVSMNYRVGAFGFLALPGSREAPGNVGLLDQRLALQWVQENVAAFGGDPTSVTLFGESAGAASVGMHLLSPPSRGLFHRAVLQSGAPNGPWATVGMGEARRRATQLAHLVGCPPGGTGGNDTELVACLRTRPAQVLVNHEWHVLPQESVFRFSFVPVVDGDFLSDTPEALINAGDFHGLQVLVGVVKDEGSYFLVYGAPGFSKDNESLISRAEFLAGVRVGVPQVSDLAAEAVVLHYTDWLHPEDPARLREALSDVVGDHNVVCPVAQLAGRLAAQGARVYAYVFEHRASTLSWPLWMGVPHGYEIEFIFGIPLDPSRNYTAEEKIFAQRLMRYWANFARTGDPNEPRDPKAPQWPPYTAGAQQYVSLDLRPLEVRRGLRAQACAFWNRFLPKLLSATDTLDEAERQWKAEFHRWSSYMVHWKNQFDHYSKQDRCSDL
Method: Said derivative of galantamine can be obtained by a one-step chemical modification of the parent drug (galantamine). The modification almost completely abolishes the pharmacological activity of galantamine on its two major targets in the human body, nicotinic acetylcholine receptor (nAChR) and acetylcholinesterase (AChE).
At the physiologically interesting concentration of 1 μM, Memogain has less than 4% of the esterase inhibition induced by the same concentration of galantamine.

[13] = format: in vivo
Description: Intranasal dosing can be done with simple spray-pump methods, although also many other methods can be used.

[14] = Solubility test of Memogain salts in water (HPLC); format: physicochemical; settings: after warming to >50° C.; precipitation seeding avoided
Method: 10 mg of the corresponding salt and 100 microliters of water were sonicated for 5 min at r.t. The resulting solution or suspension was centrifuged for 3 min. and filtered using a filter tip. 10 microliters of the filtrate was transferred in a volumetric flask and diluted to 10.0 ml with water to obtain the sample solution. 20 microliters of this sample solution was injected for HPLC and the amount of Memogain quantified using a Merck Chromolith RP18 column and a gradient of 5% to 60% acetonitrile and water, both solvents containing 0.1% formic acid, injection volume: 20 microliters.

[15] = mouse, in vivo
Method: Mice were injected with 3 mg/kg i.v. of either Memogain or galantamine.

With `COc1ccc2c3c1O[C@H]1C[C@@H](OC(=O)c4ccccc4)C=C[C@@]31CCN(C)C2` [GLN-1062, (4aS,6R,8aS)-4a,5,9,10,11,12-hexahydro-3-methoxy-11-methyl-6H-Benzofuro[3a,3,2-ef][2]benzazepin-6-ol, 6-benzoate] the GI-related side effects [1] was “GI-related side effects had practically disappeared”, the “adverse effects compared with galantamine” value [2] was “much less adverse effects” and the “adverse effects compared with galantamine” value [3] was “much less adverse effects”. For the same compound, the “BBRC compared with galantamine” value ([4]; mouse, in vivo) was “particularly large BBRC”, the “reversal of acutely induced amnesia (T-maze performance)” value [5] was “more effective than galantamine” and the “maximal concentration levels in the brain, compared with i.v. administration” value [6] was “similarly high maximal concentration levels”. For the same compound, the “adverse effects compared with galantamine” value [7] was “much less adverse effects”, the half-life ([8]; dog) was 1.5 h and the Kp at 120 min ([8]; dog, 4 mg/kg) was 9. For the same compound, the solubility ([9]; aqueous with cosolvent or surfactant or cyclodextrin) was 8900 µg/mL and 23000 µM, the solubility ([9]; water) was 26 µg/mL and 66 µM and the “lower toxicity as compared to galantamine” value ([10]; from dose dependency of adverse effects (20, 40, 80 mg/kg)) was “at least 4 times”. For the same compound, the “safety compared with galantamine” value [11] was “at Least 10 Times”, the inhibition at 1 µM [12] was under 4% and the GI side effects ([13]; in vivo) was “no GI side effects were observed”.

In the case of `COc1ccc2c3c1O[C@H]1C[C@@H](OC(=O)c4ccccc4)C=C[C@@]31CCN(C)C2.O=C(O)C(O)C(O)C(O)C(O)CO` [Memogain gluconate, galantamine benzoate gluconate], the “BBRC compared with galantamine” value ([4]; intranasal, LC/MS/MS) is reported as “much larger BBRC than galantamine”, the “stability of metastable high-concentration aqueous solution” value [14] is reported as “stable for hours and days” and the “local sensation on intranasal dosing” value ([13]; intranasal) is reported as “no burning sensation to nose”.

In the case of `COc1ccc2c3c1O[C@H]1C[C@@H](OC(=O)c4ccccc4)C=C[C@@]31CCN(C)C2.O=C(O)/C=C\C(=O)O` [Memogain maleate], the “Solubility in 0.9% NaCl” value ([9]; 0.9% NaCl) is reported as 0.6 mg/ml and 1.5 mM, the “Solubility in Cyclodextrin-Vehicle” value ([9]; 15% (109 mM) Hydroxypropyl-β-cyclodextrin, 96 mM NaCl) is reported as 21 mg/ml and 41 mM and the “Solubility in Water” value ([9]; water) is reported as 7.5 mg/ml and 15 mM.

For `COc1ccc2c3c1O[C@H]1C[C@@H](O)C=C[C@@]31CCN(C)C2` [galantamine], the BBRC [15] was ~1:1, the Kp at 120 min ([8]; in vivo, 4 mg/kg) was 1 to 1.5 and the half-life ([8]; in vivo, 4 mg/kg) was 6 h. For the same compound, the maximal tolerated dose [10] was 20 mg/kg.
